Data from patent US20240229098A1, “BIOLUMINOGENIC ASSAY FOR DRUG-RESISTANCE BACTERIA DETECTION” (priority 2021, published 2024).
“Also recorded” adds a separate entry of the source.

Legend:
firefly luciferase = target: T1, firefly luciferase (Photinus pyralis, UniProt P08659); assay: Background bioluminescence and oxidation of pro-luciferin probes on repeated addition of firefly luciferase; type: biochemical
T1 construct: purchased Promega E1701
Method: The initial bioluminescent background signal may come from residual D-luciferin present in the sample. High-performance liquid chromatography (HPLC) analysis could not detect any D-luciferin at a concentration below 0.1 μM. However, addition of firefly luciferase can efficiently detect and consume the residual free D-luciferin.
To further confirm the quenching effect of dabcyl in D-Bluco, another control, Am-Bluco, was prepared that is structurally similar to D-Bluco but with dabcyl replaced by a structure lacking the broad absorption between 400 and 530 nm (FIG. 1).

OXA-48 = target: T2, OXA-48 (Klebsiella pneumoniae, UniProt Q6XEC0); assay: Limit of detection of recombinant β-lactamase by bioluminescence (OXA-48); type: biochemical
T2 construct: made in house
T2 sequence (Q6XEC0 23-265 limits assumed): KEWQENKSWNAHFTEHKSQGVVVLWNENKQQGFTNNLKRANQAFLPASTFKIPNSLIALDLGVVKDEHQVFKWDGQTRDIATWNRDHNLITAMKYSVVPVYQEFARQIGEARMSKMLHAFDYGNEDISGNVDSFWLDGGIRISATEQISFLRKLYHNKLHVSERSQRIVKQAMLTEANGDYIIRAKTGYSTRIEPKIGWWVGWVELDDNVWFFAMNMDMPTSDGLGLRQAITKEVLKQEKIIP

AmpC = assay: Limit of detection of recombinant β-lactamase by bioluminescence (AmpC); type: biochemical; conditions: 2 hours, room temperature; 3 SD of negative control
KPC-3 = KPC-3 (Klebsiella pneumoniae, UniProt Q9F663, H272Y); assay: Limit of detection of recombinant β-lactamase by bioluminescence (KPC-3); type: biochemical; conditions: 2 hours, room temperature; 3 SD of negative control
Sequence of KPC-3 (Q9F663 25-293 H272Y): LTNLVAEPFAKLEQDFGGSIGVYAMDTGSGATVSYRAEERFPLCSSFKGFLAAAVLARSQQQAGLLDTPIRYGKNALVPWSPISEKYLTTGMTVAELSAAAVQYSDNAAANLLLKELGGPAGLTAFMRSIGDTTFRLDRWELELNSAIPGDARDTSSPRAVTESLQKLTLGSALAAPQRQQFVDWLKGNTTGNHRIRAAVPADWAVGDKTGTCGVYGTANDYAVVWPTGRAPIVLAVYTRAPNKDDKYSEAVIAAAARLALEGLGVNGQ

BlaC = target: T3, BlaC (Mycobacterium tuberculosis, UniProt P9WKD3); assay: Limit of detection of recombinant β-lactamase by bioluminescence (BlaC); type: biochemical; conditions: 2 hours, room temperature; 3 SD of negative control
T3 construct: made in house
T3 sequence (P9WKD3 35-307): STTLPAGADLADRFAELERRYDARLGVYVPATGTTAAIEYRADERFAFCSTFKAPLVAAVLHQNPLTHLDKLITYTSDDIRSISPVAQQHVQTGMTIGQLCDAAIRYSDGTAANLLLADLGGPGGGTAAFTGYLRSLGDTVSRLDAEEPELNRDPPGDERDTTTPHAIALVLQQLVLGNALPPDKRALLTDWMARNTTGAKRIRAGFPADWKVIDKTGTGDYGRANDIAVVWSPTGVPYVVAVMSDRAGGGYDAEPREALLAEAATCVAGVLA

[1] = tested on: clinically bacteria isolates in urine samples; assay: RAPID BLI assay, summary for clinical bacteria isolates in urine samples; type: cell-based; conditions: in 30 mins
Text: The source of the bioluminescence background emission in bioluminogenic pro-luciferin probes was investigated. In addition to trace amounts of free D-luciferin in the sample, pro-luciferin probes can be oxidized by luciferases due to the promiscuity of the enzyme […]. […] By combining BRET quenching and chemical caging, an ultrasensitive bioluminescent probe D-Bluco was developed that could detect as low as 10-18 moles of β-lactamase activity.

S. marcescens (SME) = assay: Clinical isolate spiked in synthetic urine, filtered and centrifuged, S. marcescens (SME); type: cell-based; conditions: 10 μM D-Bluco, an hour at 37° C., PBS pH 7.4
Method: (§1) FIGS. 11A-11C illustrate detection of clinical isolates spiked in urine with D-Bluco a) Workflow for clinical sample detection b) Bioluminescent response for different concentrations of S. marcescens (SME) or c) E. coli/OXA-48 spiked into synthetic urine samples following the incubation with D-Bluco (10 μM) at 37° C. for an hour. Bioluminescent signal was measured and compared to that of E. coli (10^6 c.f.u/mL).
(§2) Urinary tract infection (UTI) is a severe public health problem because of the high recurrence rates and increasing antimicrobial resistance. It is among the major cause of patient morbidity and health care expenditures for both men and women of all age groups, accounting for 1 million cases of nosocomial in USA annually and an estimate cost of 1.6 billion. As a proof-of-concept, we spiked different concentrations of clinic isolates into synthetic urine samples. E. coli expressing OXA-48 and S. marcescens (SME) were chosen as examples. S. marcescens, being an opportunistic pathogen, accounts for an average of 6.5% of all Gram negative infection in intensive Care Units. The spiked urine samples were filtered and centrifuged to collect the bacteria (FIG. 11A). The collected bacteria were then diluted in PBS (pH=7.4) and incubated with 10 μM D-Bluco for an hour at 37° C.

[2] = tested on: E. coli expressing OXA-48; assay: Clinical isolate spiked in synthetic urine, filtered and centrifuged, E. coli expressing OXA-48; type: cell-based, Escherichia coli; conditions: E. coli expressing OXA-48, 10 μM D-Bluco, an hour at 37° C., PBS pH 7.4
Method: as §1, §2

TEM-1 [3] = target: T4, TEM-1 (Escherichia coli, UniProt P62593); type: biochemical; parameters: made in house; conditions: 10 μM probe
T4 sequence (P62593 24-286 limits assumed): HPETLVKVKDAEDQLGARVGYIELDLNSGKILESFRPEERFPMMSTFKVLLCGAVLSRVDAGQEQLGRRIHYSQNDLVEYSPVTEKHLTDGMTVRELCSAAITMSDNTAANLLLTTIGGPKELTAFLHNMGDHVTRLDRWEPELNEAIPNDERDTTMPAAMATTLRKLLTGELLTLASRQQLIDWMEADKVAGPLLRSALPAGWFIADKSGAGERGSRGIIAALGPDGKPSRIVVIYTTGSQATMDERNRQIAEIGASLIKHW
Method: RLU indicates relative light units.
FIGS. 9A and 9B illustrates bioluminescent studies of D-Bluco and O-Bluco treating with various β-lactamases. 10 μM of Bluco, D-Bluco and O-Bluco incubated with 20 nM TEM-1 for 15 min in PBS at r.t. The bioluminescent signals for each compound was evaluated with or without the addition of TEM-1 by a luminator. […] The relative bioluminescent was calculated by removing background signal in PBS.
The bioluminescence emission from the released D-luciferin was measured. […] Also evaluated was whether there was interference between luciferase and β-lactamases in such dual enzyme reaction system.
The signal to background ratio for D-Bluco, O-Bluco, and Bluco was measured following the addition of the firefly luciferase (fLuc).
The caged luciferin probes were incubated with different concentrations of TEM-1 β-lactamase or IMP-1 carbapenemase (0.001-0.1 fmol) in PBS (pH=7.4) for 2 hr at 25° C. Then a mixture of luciferase (200 nM), ATP (2 mM), and MgCl2 (4 mM) was added, and bioluminescent signals were detected with a SpectraMax microplate reader or a luminator.

TEM-1 [4] = target: T4, TEM-1; assay: Limit of detection of recombinant β-lactamase by bioluminescence (TEM-1); type: biochemical; parameters: made in house; conditions: 2 hours, room temperature; 3 SD of negative control
E. coli/TEM = assay: Inhibitor test with E. coli/TEM and D-Bluco; conditions: D-Bluco 10 μM, no inhibitor
[5] = Stability of probe incubated with E. coli or PBS; conditions: incubated with Escherichia coli or PBS
K. pneumoniae/KPC = assay: RAPID BLI test, clinic isolate spiked into synthetic urine, K. pneumoniae/KPC; conditions: K. pneumoniae/KPC in synthetic urine, D-Bluco 10 μM
Method: The modified rapid BLI protocol is applied. The signal of D-Bluco in PBS was subtracted before plotting. The working concentration of D-Bluco was 10 μM. All the studies were duplicated at room temperature in PBS (pH=7.4). Statistical significance was calculated using the unpaired two-tailed Student's t test (** p<0.0021, *** p<0.0002, **** p<0.0001, for comparison with 10^5 cfu/mL E. coli) (** p<0.0021, **** p<0.0001, ns: not significant). RLU indicates relative light units. Dotted line represents 3SD of the negative control.
(§3) Bacteria was mixed with 0.5% CHAPS lysis buffer for 15 min, and then incubated with D-Bluco at room temperature for another 15 min. The resulted mixture was combined with assay buffer which contains MgCl2, CoA, ATP, and luciferase for immediate bioluminescent reading.
Clinic isolates representing different classes (class A: Enterobacter cloacae/IMI, E. coli/TEM, K. pneumoniae/KPC; class B: E. coli/NDM, and class C: E. cloacae/AmpC) were spiked into synthetic urine samples.

E. coli/NDM lysate = assay: Bioluminescence with bacterial lysate compared to intact bacteria, E. coli/NDM; conditions: CHAPS lysis
Method: (§4) To evaluate whether releasing β-lactamases from periplasm could improve detection sensitivity, the bacteria were lysed.
(§5) Two clinically significant isolates K. pneumoniae expressing KPC carbapenemase (K. pneumoniae/KPC) and E. coli expressing New Delhi metallo β-lactamase (E. coli/NDM) were evaluated.
as §3

K. pneumoniae/KPC lysate = assay: Bioluminescence with bacterial lysate compared to intact bacteria, K. pneumoniae/KPC; conditions: CHAPS lysis
Method: as §4, §5, §3

T1 sequence (P08659 whole entry): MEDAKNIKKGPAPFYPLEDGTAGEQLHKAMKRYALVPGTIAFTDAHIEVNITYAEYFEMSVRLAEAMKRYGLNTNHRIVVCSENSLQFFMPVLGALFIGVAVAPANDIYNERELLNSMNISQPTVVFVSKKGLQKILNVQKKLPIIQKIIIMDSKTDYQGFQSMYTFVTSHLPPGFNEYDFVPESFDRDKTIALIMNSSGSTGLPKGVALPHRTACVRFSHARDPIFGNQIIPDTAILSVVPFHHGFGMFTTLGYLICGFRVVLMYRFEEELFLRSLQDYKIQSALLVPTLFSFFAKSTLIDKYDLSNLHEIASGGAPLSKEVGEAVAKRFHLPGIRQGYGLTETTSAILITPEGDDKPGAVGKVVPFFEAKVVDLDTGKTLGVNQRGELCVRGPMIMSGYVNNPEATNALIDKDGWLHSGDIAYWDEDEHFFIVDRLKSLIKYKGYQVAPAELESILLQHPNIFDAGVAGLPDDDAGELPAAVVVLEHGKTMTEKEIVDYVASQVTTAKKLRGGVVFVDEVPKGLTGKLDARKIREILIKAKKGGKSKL

SMILES: CN(C)c1ccc(/N=N/c2ccc(C(=O)NCCCCCC(=O)NC3C(=O)N4C(C(=O)O)=C(COc5ccc6nc(C7=N[C@@H](C(=O)O)CS7)sc6c5)C[S+]([O-])C34)cc2)cc1 (stereo partly drawn) [D-Bluco, 3-(((2-((S)-4-carboxy-4,5-dihydrothiazol-2-yl)benzo[d]thiazol-6-yl)oxy)methyl)-7-(6-(4-((E)-(4-(dimethylamino)phenyl)diazenyl)benzamido)hexanamido)-8-oxo-5-thia-1-azabicyclo[4.2.0]oct-2-ene-2-carboxylic acid 5-oxide]
- oxidation of probe incubated with firefly luciferase (mass spectrometry) (firefly luciferase; incubated with firefly luciferase): oxidized
- bioluminescence emission on additional batches of firefly luciferase (firefly luciferase; repeated firefly luciferase addition, no β-lactamase): no further bioluminescence emission was detected
- efficiency of OXA-48 in hydrolyzing the probe (OXA-48): low efficiency
- limit of detection (LOD) of OXA-48 (OXA-48; 2 hours, room temperature, 3 SD of negative control (D-Bluco in PBS)): 0.1 femtomole
- limit of detection (LOD) of AmpC (AmpC): 0.1 femtomole
- limit of detection (LOD) of KPC-3 (all other β-lactamases) (KPC-3): 0.001 femtomole
- limit of detection (LOD) of BlaC (all other β-lactamases) (BlaC): 0.001 femtomole
- sensitivity of RAPID BLI assay for clinical isolates in urine samples [1]: 10^2-10^3 cfu/mL
- concentration from which significant bioluminescence enhancement is seen (S. marcescens (SME)): 10^4 c.f.u/mL
- concentration from which significant bioluminescence enhancement is seen [2]: 10^5 c.f.u/mL
- fold increase in bioluminescence emission upon TEM-1 treatment (turn-on ratio, signal with TEM-1 over signal without TEM-1) (TEM-1 [3]; TEM-1 20 nM, 15 min, PBS pH 7.4, r.t.): 1420 fold
- initial bioluminescent background signal without TEM-1 (TEM-1 [3]; without TEM-1): significantly lower than that of Bluco; also recorded: lowest background signal
- limit of detection (LOD) of TEM-1 (all other β-lactamases) (TEM-1 [4]): 0.001 femtomole
- increase of bioluminescent intensity of E. coli/TEM-1 treated with probe over PBS (E. coli/TEM): 260 fold
- stability when incubated with E. coli or PBS [5]: highly stable
- concentration detected directly without culture (K. pneumoniae/KPC): 10^3 cfu/mL
- signal enhancement with lysate compared to intact bacteria (E. coli/NDM lysate): 145 fold
- signal enhancement with lysate compared to intact bacteria (K. pneumoniae/KPC lysate): 141 fold
